Reference: patent publication US12594277B2, “Macrocyclic ULK1/2 inhibitors” (SALK INSTITUTE FOR BIOLOGICAL STUDIES, priority 2020, dated 2026)

Legend:
[1] = biological target: T1, recombinant human ULK1 protein (1-649) (Homo sapiens, UniProt O75385); test: ULK1 inhibition assay (ADP-Glo); format: biochemical; settings: 2 ug/mL ULK1, 80 ug/mL myelin basic protein, 25 uM ATP, assessed after one hour
T1 construct: recombinant human ULK1 protein (1-649, SignalChem #U01-11G); purchased SignalChem U01-11G
T1 sequence (O75385 1-649): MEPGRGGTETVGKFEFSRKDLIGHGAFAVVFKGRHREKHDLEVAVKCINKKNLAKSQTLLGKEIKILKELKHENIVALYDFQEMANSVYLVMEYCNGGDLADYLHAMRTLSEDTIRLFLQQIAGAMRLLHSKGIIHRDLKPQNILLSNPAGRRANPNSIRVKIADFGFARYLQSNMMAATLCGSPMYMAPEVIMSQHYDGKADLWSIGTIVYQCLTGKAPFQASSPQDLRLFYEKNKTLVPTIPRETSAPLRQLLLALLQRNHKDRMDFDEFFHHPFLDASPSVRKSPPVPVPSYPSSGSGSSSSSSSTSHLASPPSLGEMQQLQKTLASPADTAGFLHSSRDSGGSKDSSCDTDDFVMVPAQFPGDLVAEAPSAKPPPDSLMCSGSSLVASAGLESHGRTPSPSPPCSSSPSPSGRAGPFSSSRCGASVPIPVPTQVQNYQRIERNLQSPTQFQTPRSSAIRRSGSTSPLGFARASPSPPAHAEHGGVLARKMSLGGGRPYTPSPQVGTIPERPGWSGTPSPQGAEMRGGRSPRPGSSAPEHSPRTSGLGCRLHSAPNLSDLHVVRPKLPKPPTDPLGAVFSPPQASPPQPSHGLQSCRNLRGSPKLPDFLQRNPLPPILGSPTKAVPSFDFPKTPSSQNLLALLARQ
Procedure: IC50s measured by ADP-Glo assay are represented nM, with A representing IC50<20 nM, B representing IC50>20 nM. NT indicates the compound was not tested. ULK1 inhibition assays were performed in a 5 uL reaction volume containing 2 ug/mL recombinant human ULK1 protein (1-649, SignalChem #U01-11G) and 80 ug/mL myelin basic protein (MBP, Sigma-Aldrich #M1891) in the presence of 25 uM ATP (Sigma-Aldrich A7699). ULK 1 inhibition was assessed after one hour. Compounds were tested in triplicate in a 16-dose IC50 mode with 3-fold serial dilution and a starting dose of 30 uM. Staurosporine, a non-selective protein kinase inhibitor, was used in the assay as a positive control. Three separate experiments were carried out.

[2] = biological target: T2, NanoLuc-ULK1 fusion in HEK293T cells (Homo sapiens, UniProt O75385); test: ULK1 NanoBRET assay; format: cell-based; settings: HEK293T transfected with NanoLuc-ULK1 Fusion Vector, Tracer K-5, 2 h incubation
T2 construct: host or cells: HEK293T
T2 sequence (O75385 1-1050): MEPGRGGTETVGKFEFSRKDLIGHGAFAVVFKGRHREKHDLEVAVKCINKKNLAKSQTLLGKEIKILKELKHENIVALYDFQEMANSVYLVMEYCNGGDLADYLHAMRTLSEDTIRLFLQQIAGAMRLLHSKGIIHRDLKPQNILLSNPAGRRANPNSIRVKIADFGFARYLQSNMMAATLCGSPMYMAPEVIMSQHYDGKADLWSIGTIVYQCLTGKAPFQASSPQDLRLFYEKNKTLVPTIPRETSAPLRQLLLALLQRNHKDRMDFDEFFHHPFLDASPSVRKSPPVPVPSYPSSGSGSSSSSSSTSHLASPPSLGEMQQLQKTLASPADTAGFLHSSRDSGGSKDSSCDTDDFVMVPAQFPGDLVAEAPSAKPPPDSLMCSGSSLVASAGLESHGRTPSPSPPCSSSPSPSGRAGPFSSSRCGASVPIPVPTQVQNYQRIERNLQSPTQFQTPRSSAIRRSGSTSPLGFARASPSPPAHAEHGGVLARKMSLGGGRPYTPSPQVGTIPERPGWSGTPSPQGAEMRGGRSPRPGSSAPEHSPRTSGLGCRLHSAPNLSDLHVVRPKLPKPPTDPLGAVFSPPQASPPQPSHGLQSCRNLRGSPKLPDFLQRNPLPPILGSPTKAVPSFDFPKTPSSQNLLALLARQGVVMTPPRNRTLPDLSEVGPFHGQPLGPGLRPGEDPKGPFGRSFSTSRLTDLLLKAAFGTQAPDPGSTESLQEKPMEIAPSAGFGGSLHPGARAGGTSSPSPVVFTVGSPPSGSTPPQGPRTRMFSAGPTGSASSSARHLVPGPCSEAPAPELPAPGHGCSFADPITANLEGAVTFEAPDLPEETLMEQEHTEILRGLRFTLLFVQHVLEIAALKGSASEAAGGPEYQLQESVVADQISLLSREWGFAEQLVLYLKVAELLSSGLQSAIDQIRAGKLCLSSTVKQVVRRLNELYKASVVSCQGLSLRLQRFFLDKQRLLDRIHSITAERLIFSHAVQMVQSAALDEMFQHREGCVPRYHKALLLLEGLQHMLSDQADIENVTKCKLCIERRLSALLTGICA
Procedure: IC50s were also measured by ULK1 NanoBRET assay according to the following protocol: Human embryonic kidney cells (HEK293T) were transfected with NanoLuc®-ULK1 Fusion Vector (Promega #NV2211) using jetPRIME transfection reagent (Polyplus Transfection #114-15). Following 24 h, cells were trypsinized and resuspended in Opti-MEM® I (1×), Reduced Serum Medium (Gibco, #11058-021). Approximately, 7,000 cells per well (in 34 μL total volume) were replated into non-binding surface 384 well plates. Complete NanoBRET 20× Tracer K-5 reagent was prepared according to the manufacturer's directions and 2 μL were added to each well of the 384 plate (assay plate). The assay plate was mixed on an orbital shaker for 15 seconds at 700 rpm. Compounds were serially diluted at 200× final concentration in […], then diluted to 10× final concentration in assay media (Opti-MEM® I, Reduced Serum Medium). Next, 4 μL 10× test compounds were added to each well of the assay plate, followed by mixing at 700 rpm for 15 seconds. The assay plate was incubated for 2 h in a 37 C incubator with […] and then equilibrated to RT for 15 min. The 3× Complete Substrate plus Inhibitor Solution was prepared according to the manufacturer's directions with a concentration of Extracellular NanoLuc® Inhibitor of 60 μM to be used at a working concentration of 20 μM. The 3× Complete Substrate plus Inhibitor Solution was mixed and 20 μL per well was added to the assay plate and incubated at RT for 2-3 min. Donor emission wavelength (450 nm) and acceptor emission wavelength (610 nm) were measured using an assay compatible luminometer (see manufacturer's specifications).

| IC50 [1] [nM] | IC50 [2] [nM] | Compound |
| --- | --- | --- |
| > 20 | > 1000 | CNC(=O)c1ccc2cc1Nc1nc(ncc1C(F)(F)F)Nc1ccc(c(OC)c1)OCCCCCCO2 [Compound 17, 5^3-Methoxy-N-methyl-3^5-(trifluoromethyl)-6,13-dioxa-2,4-diaza-3(4,2)-pyrimidina-1(1,3),5 (1,4)-dibenzenacyclotridecaphane-16-carboxamide] |
| < 20 | > 1000 | CNC(=O)c1cc2ccc1Nc1nc(ncc1C(F)(F)F)Nc1ccc(OC)c(c1)OC/C=C/CCCO2 [Compound 18, (E)-1^4-methoxy-N-methyl-3^5-(trifluoromethyl)-6,13-dioxa-2,4-diaza-3(2,4)-pyrimidina-1(1,3),5(1,4)-dibenzenacyclotridecaphan-10-ene-5^2-carboxamide] |
| < 20 | < 1000 | CNC(=O)c1cc2ccc1Nc1nc(ncc1C(F)(F)F)Nc1ccc(OC)c(c1)OC/C=C\CCCO2 [Compound 19, (Z)-1^4-methoxy-N-methyl-3^5-(trifluoromethyl)-6,13-dioxa-2,4-diaza-3(2,4)-pyrimidina-1(1,3),5(1,4)-dibenzenacyclotridecaphan-10-ene-5^2-carboxamide] |
| < 20 | > 1000 | CNC(=O)c1cc2ccc1Nc1nc(ncc1C(F)(F)F)Nc1ccc(OC)c(c1)OCCCCCCO2 [Compound 20, 1^4-Methoxy-N-methyl-3^5-(trifluoromethyl)-6,13-dioxa-2,4-diaza-3(2,4)-pyrimidina-1(1,3),5 (1,4)-dibenzenacyclotridecaphane-52-carboxamide] |
| > 20 | > 1000 | CNC(=O)c1ccc2cc1Nc1nc(ncc1C(F)(F)F)Nc1ccc(OC)c(c1)OC/C=C\CCO2 [Compound 21, (E)-1^4-methoxy-N-methyl-3^5-(trifluoromethyl)-6,12-dioxa-2,4-diaza-3(2,4)-pyrimidina-1,5(1,3)-dibenzenacyclododecaphan-9-ene-5^6-carboxamide] |
| > 20 | > 1000 | CNC(=O)c1ccc2cc1Nc1nc(ncc1C(F)(F)F)Nc1ccc(OC)c(c1)OC/C=C/CCO2 [Compound 22, (Z)-1^4-methoxy-N-methyl-3^5-(trifluoromethyl)-6,12-dioxa-2,4-diaza-3(2,4)-pyrimidina-1,5(1,3)-dibenzenacyclododecaphan-9-ene-5^6-carboxamide] |
| > 20 | > 1000 | CNC(=O)c1ccc2cc1Nc1nc(ncc1C(F)(F)F)Nc1ccc(OC)c(c1)OCCCCCO2 [Compound 23, 1^4-methoxy-N-methyl-3^5-(trifluoromethyl)-6,12-dioxa-2,4-diaza-3(2,4)-pyrimidina-1,5(1,3)-dibenzenacyclododecaphane-5^6-carboxamide] |
| > 20 | > 1000 | CNC(=O)c1ccc2cc1Nc1nc(ncc1C(F)(F)F)Nc1ccc(c(OC)c1)OC/C=C/CCO2 [Compound 24, (E/Z)-5^3-Methoxy-N-methyl-3^5-(trifluoromethyl)-6,12-dioxa-2,4-diaza-3(4,2)-pyrimidina-1(1,3),5(1,4)-dibenzenacyclododecaphan-8-ene-1^6-carboxamide] |

| Compound | IC50 [1] [nM] | IC50 [2] [nM] |
| --- | --- | --- |
| CNC(=O)c1ccc2cc1OCCCCCOc1ccc(cc1OC)Nc1ncc(C(F)(F)F)c(n1)N2 [Compound 25, 5^3-Methoxy-N-methyl-3^5-(trifluoromethyl)-6,12-dioxa-2,4-diaza-3(4,2)-pyrimidina-1(1,3), 5(1,4)-dibenzenacyclododecaphane-1^6-carboxamide] | > 20 | > 1000 |
